From US12350276B2, “Methods for the treatment of cancer using 1-(4-{[4-(dimethylamino)piperidin-1-yl]carbonyl}phenyl)-3-[4-(4,6-dimorpholin-4-yl-1,3,5-triazin-2-yl)phenyl]urea” (Celcuity Inc., priority 2021, dated 2025)

Experiments:
Rb-negative tumors = conditions: reported by Michaud et al., Cancer Res. 70:3228-3238 (2010); cited from earlier work
[1] = test system: patients with ER+/HER2− metastatic breast cancer; test: Phase 1b trial, expansion portion: gedatolisib plus palbociclib plus fulvestrant or letrozole; assay type: in vivo, human; conditions: for Overall Response Rate: partial objective response; for # of Partial Responses: patients who failed 2 or more prior lines of therapy; for median duration of treatment, Arm D relative to Arm C: 3 weeks on/1 week off vs weekly
Description: To evaluate this hypothesis, Pfizer initiated a Phase 1b trial dose-finding trial with a four-armed expansion portion for safety and efficacy to evaluate gedatolisib when added to either the standard doses of palbociclib plus letrozole or palbociclib plus fulvestrant in patients with ER+/HER2− metastatic breast cancer. PI3K mutation status was not used as an eligibility criterion. Patient enrollment for the trial is complete. A preliminary analysis for the 103 patients enrolled in the expansion portion of the Phase 1b clinical trial, as of the database cutoff date of Jan. […] 1. Objectives
(§1) This is a Phase 1b, multicenter, open-label, study in patients with mBC. This study has both a dose escalation and expansion portion. The dose escalation portion will identify the MTD of the combination of gedatolisib plus palbociclib/letrozole and gedatolisib plus palbociclib/fulvestrant. The expansion portion will estimate the objective response rate of the combination of gedatolisib plus palbociclib/letrozole and the combination of gedatolisib plus palbociclib/fulvestrant.
The study population for the dose escalation and the dose expansion consists of patients of any menopausal status with ER-positive, HER2-negative, metastatic or locally-recurrent/advanced breast cancer (mBC).
Once the MTD of each combination was determined this triggers the initiation of the expansion portion, which comprises 4 arms, as follows: (1) Arm A: first-line endocrine-based therapy; (2) Arm B: second- or third-line endocrine-based therapy, without prior palbociclib (or other CDK inhibitor) therapy; (3) Arm C: second- or third-line endocrine-based therapy with prior exposure to palbociclib (or other CDK inhibitor) therapy, in which gedatolisib is administered once weekly for four weeks; and (4) Arm D: second or third line endocrine based therapy with progression on palbociclib (or other CDK inhibitor) therapy (as the most recent regimen), in which gedatolisib is administered on a three weeks on/one week off (3:1) schedule.
All cycles are 28 days in length. Gedatolisib is administered IV weekly on Days 1, 8, 15 and 22 of each cycle (except for Arm D, in which gedatolisib is administered on Days 1, 8 and 15 of each cycle), palbociclib is administered at 125 mg/day orally continuously dosed for 3 weeks followed by 1 week off, repeated at each subsequent cycle. Letrozole 2.5 mg daily is administered orally on a continuous basis (daily) and fulvestrant is administered at a dose of 500 mg intramuscularly on Cycle 1 Day 1, Cycle 1 Day 15, Cycle 2 Day 1, and then on […] of each subsequent cycle (±3 days).
Gedatolisib was administered weekly as an IV infusion over approximately 30 minutes. (Dose Escalation; Dose Expansion: Arm A, Arm B and Arm C).
In Arm D of the Dose Expansion portion, gedatolisib was administered on a 3 week on/one week off schedule as an IV infusion over approximately 30 minutes. No premedication was required.
The coprimary efficacy endpoints of the study were (1) first cycle Dose-Limiting Toxicities (DLTs); and (2) Objective response (OR) as assessed by the Investigator.
The secondary efficacy endpoints of the study were: • 1) Safety including adverse events as characterized by type, frequency, severity, timing, seriousness and relationship to study therapy and laboratory abnormalities as characterized by type, frequency, severity and timing. • 2) Tumor response for the dose escalation portion of the study. • 3) DR and PFS (as assessed using the RECIST v 1.1) for the expansion portion of the study. • 4) QTc interval. • 5) Single and multiple dose PK parameters of gedatolisib and palbociclib. Multiple dose PK parameters of fulvestrant and letrozole (Dose Escalation portion only). • 6) Single and multiple dose PK parameters of gedatolisib (Dose Expansion portion only). 7. Results
Arm D patients received gedatolisib (180 mg IV three weeks on/one week off). […]

[2] = Phase 1b trial, dose escalation portion: maximum tolerated dose; assay type: in vivo, human; conditions: IV, in triplet combination with palbociclib and letrozole or fulvestrant
Description: The primary objective of the study was to assess the safety, tolerability, and maximum tolerated dose (MTD) of the triplet combination of gedatolisib added to either the standard dose of the palbociclib/letrozole or palbociclib/fulvestrant.
as §1
The dose escalation portion of the study initially assess safety and tolerability of the 180 mg/week dose of gedatolisib plus standard doses of palbociclib/letrozole or 180 mg/week dose of gedatolisib plus standard doses of palbociclib/fulvestrant. The dose escalation portion then explore escalating doses of gedatolisib plus each regimen. During the dose escalation 10 DLT evaluable patients are treated at the expected MTD.
The conventional approach to determining the dosing schedule for a therapeutic regimen for cancer patients is to determine the maximum tolerated dose in a Phase 1 clinical trial. […]

[3] = Stability of crystalline form on storage; assay type: physicochemical; conditions: 25° C. and 60% Relative Humidity (RH)
Description: (§2) Gedatolisib is a pan-class I isoform PI3K/mTOR inhibitor with high potency (NCT02626507, Apr. 24, 2020). The chemical synthesis of gedatolisib is disclosed in U.S. Pat. Nos. 8,039,469; 8,217,036; 8,445,486; 8,575,159; 8,748,421; 8,859,542; 9,174,963; 10,022,381, which are hereby incorporated by reference in their entirety. […] Accordingly, formulations that allow for therapeutic dosage levels have been developed.

[4] = Aqueous solubility / achievable solution concentration; assay type: physicochemical; conditions: free base; for aqueous IV or parenteral solution at therapeutic dosage levels
Description: as §2, with “developed. The formulations include gedatolisib, or a methanesulphonate salt thereof, methanesulphonic acid, and water. […] Another formulation disclosed is gedatolisib, or an ethanesulphonate salt thereof, ethanesulphonic acid and water.” for “developed.”

[5] = test system: MCF7 xenograft model (ER+/HER2−/PIK3CA mutant); conditions: cited from earlier work
[6] = aqueous formulation with methanesulphonic acid or ethanesulphonic acid; WO2019038657; cited from earlier work
[7] = Arm C, weekly, failed 2 or more prior lines of therapy
[8] = Arm D vs Arm C, failed 2 or more prior lines of therapy
[9] = Arm D, 3 weeks on/1 week off, DIPT < 180 days
[10] = Arm D, 3 weeks on/1 week off, DIPT < 365 days
[11] = Arm D, 3 weeks on/1 week off, failed 2 or more prior lines of therapy

SMILES: CC(=O)c1c(C)c2cnc(Nc3ccc(N4CCNCC4)cn3)nc2n(C2CCCC2)c1=O [PD-0332991, 6-acetyl-8-cyclopentyl-5-methyl-2-(5-piperazin-1-yl-pyridin-2-ylammino)-8H-pyrido-[2,3-d]-pyrimidin-7-one]
- activity against Rb-negative tumors (Rb-negative tumors): inactive

SMILES: CN(C)C1CCN(C(=O)c2ccc(NC(=O)Nc3ccc(-c4nc(N5CCOCC5)nc(N5CCOCC5)n4)cc3)cc2)CC1 [gedatolisib, 1-(4-{[4-(Dimethylamino)piperidin-1-yl]carbonyl}phenyl)-3-[4-(4,6-dimorpholin-4-yl-1,3,5-triazin-2-yl)phenyl]urea]
- Median Duration of Gedatolisib (DGT) Treatment ([1]; Arm C, weekly gedatolisib with palbociclib and fulvestrant, DIPT < 180 days): 81 days
- Median Duration of Gedatolisib (DGT) Treatment ([1]; Arm C, weekly gedatolisib with palbociclib and fulvestrant, DIPT < 365 days): 131 days
- Ratio of median DIPT vs. DGT ([1]; Arm C, weekly, DIPT < 180 days): 0.8
- Overall Response Rate ([1]; Arm C, weekly, DIPT < 180 days): 0%
- Overall Response Rate ([1]; Arm C, weekly, DIPT < 180 days, listed as Gedatolisib): 0%
- Ratio of median DIPT vs. DGT ([1]; Arm C, weekly, DIPT < 365 days): 0.9
- Overall Response Rate ([1]; Arm C, weekly, DIPT < 365 days): 15%
- Overall Response Rate ([1]; Arm C, weekly, DIPT < 365 days, listed as Gedatolisib): 15%
- Mean Progression Free Survival [1, 7]: 233
- Objective Response Rate [1, 7]: 32%
- # of Partial Responses ([1]; Arm C, weekly, 19 evaluable): 6
- Mean Progression Free Survival, Odds Ratio [1, 8]: 2.28
- Objective Response Rate, Odds Ratio [1, 8]: 2.4
- Objective Response Rate, Odds Ratio ([1]; Arm D vs Arm C, failed 2 or more prior lines of therapy, listed as Gedatolisib): 2.44
- Ratio of median DIPT vs. DGT [1, 9]: 2.6
- Overall Response Rate [1, 9]: 71%
- Overall Response Rate ([1]; Arm D, 3 weeks on/1 week off, DIPT < 180 days, listed as Gedatolisib): 71%
- Ratio of median DIPT vs. DGT [1, 10]: 1.8
- Overall Response Rate [1, 10]: 73%
- Overall Response Rate ([1]; Arm D, 3 weeks on/1 week off, DIPT < 365 days, listed as Gedatolisib): 73%
- Mean Progression Free Survival [1, 11]: 531
- Objective Response Rate [1, 11]: 78%
- # of Partial Responses ([1]; Arm D, 3 weeks on/1 week off, 9 evaluable): 7
- Median Duration of Gedatolisib (DGT) Treatment ([1]; Arm D, gedatolisib 180 mg IV 3 weeks on/1 week off with palbociclib and fulvestrant, DIPT < 180 days): 270 days
- Median Duration of Gedatolisib (DGT) Treatment ([1]; Arm D, gedatolisib 180 mg IV 3 weeks on/1 week off with palbociclib and fulvestrant, DIPT < 365 days): 276 days
- Median progression free survival ([1]; Arm D: prior endocrine therapy plus CDK4/6 inhibitor, gedatolisib 3 weeks on/1 week off with palbociclib and fulvestrant): 13.2 months
- clinical benefit rate (CBR) ([1]; expansion portion, all arms, 88 evaluable patients, confirmed PR or stable disease for 24 weeks, cutoff Jan. 11, 2021): 75%
- objective response rate (ORR) ([1]; expansion portion, all arms, 88 evaluable patients, confirmed or unconfirmed PR, with palbociclib plus letrozole or fulvestrant, cutoff Jan. 11, 2021, preliminary analysis): 60%
- median duration of treatment, Arm D relative to Arm C ([1]; patients who progressed on immediate prior therapy in ≤6 months): more than 3 times
- median duration of treatment, Arm D relative to Arm C ([1]; patients who progressed on immediate prior therapy in ≤12 months): more than two times longer
- maximum tolerated dose [2]: 180 mg weekly
- chemically and physically stable for [3]: up to 3 years
- water solubility [4]: insufficiently water soluble
- time tumors remained dormant without further therapy ([5]; after triplet therapy (gedatolisib, palbociclib, fulvestrant)): up to 90 days
- tumor response ([5]; combination of gedatolisib with palbociclib and fulvestrant, Pfizer internal preclinical study): durable tumor regressions
- time for tumors to regress to minimal volumes ([5]; triplet therapy (gedatolisib, palbociclib, fulvestrant)): ≤ 20 days
- solution concentration achieved (clear, essentially particle-free solution) [6]: up to 30 mg/ml
